Biological target: T1, HCMV polymerase (Human cytomegalovirus, UniProt P08546)
T1 construct: made in house; host or cells: SF-9 insect cells infected with recombinant baculovirus
Assay: HCMV polymerase assay (scintillation proximity assay)
Type: biochemical
Conditions: percentage of inhibition at 25 μM concentration in CMV polymerase assay
In short: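 Values are percent inhibition at 25 μM, measured by scintillation proximity after capture of biotinylated poly(dA)-oligo(dT) (6 nM) extended with 90 nM 3H-dTTP. Recombinant SF-9-derived enzyme reacted 30 min at 25 or 37 °C in HEPES pH 7.5/KCl/MgCl2/BSA buffer, ±2 mM CHAPS, before EDTA termination.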

T1 sequence (P08546 whole entry): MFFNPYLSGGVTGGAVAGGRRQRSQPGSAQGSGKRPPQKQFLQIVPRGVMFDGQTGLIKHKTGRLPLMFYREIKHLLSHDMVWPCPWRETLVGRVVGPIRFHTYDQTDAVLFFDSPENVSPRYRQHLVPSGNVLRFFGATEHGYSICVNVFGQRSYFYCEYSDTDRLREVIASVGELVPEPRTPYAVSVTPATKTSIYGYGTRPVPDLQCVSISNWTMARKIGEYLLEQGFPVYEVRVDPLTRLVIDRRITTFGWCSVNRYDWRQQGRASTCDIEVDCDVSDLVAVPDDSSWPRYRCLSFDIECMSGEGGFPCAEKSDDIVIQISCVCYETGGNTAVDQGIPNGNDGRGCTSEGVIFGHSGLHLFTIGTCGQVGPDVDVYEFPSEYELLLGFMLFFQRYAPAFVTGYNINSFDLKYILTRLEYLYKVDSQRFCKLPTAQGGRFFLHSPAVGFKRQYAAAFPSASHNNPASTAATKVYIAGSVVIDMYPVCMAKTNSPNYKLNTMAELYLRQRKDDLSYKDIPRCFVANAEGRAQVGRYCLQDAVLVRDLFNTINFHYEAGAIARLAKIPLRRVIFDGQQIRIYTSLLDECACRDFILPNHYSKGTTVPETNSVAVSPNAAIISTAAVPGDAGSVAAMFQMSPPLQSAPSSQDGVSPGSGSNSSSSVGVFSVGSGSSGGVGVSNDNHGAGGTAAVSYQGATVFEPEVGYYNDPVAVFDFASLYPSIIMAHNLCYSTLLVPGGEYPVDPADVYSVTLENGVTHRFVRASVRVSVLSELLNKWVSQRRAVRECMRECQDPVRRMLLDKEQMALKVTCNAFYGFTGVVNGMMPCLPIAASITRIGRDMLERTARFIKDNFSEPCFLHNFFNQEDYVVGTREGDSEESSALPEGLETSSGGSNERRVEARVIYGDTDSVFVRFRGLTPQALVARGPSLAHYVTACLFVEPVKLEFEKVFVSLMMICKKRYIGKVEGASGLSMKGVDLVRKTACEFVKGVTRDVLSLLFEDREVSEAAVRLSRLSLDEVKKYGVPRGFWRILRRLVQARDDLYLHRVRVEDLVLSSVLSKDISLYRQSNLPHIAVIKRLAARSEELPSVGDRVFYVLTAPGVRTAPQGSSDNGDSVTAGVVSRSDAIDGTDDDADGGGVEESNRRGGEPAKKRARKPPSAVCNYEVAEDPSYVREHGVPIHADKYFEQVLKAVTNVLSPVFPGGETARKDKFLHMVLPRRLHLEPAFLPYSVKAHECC

SMILES | inhibition at 25 µM | % Inhib
CCCCCCCC/C=C/CCCCCCCC(=O)Nc1nnc(NC2CCCc3ccccc32)s1 (stereo not drawn) [compound 107, (E)-N-[5-(1,2,3,4-tetrahydro-1-naphthalenylamino)-1,3,4-thiadiazol-2-yl]-9-octadecenamide] | 63.8% | –
O=C(Nc1nnc(NCc2cccc3ccccc23)s1)c1ccc(S(=O)(=O)F)cc1 [compound 195, 4-[({5-[(1-naphthylmethyl)amino]-1,3,4-thiadiazol-2-yl}amino)carbonyl]benzenesulfonyl fluoride] | – | 46.7%
CCCCCCCCCCCNc1nnc(NC(=O)c2cc3ccccc3s2)s1 [compound 257, N-[5-(undecylamino)-1,3,4-thiadiazol-2-yl]-1-benzothiophene-2-carboxamide] | 39.8% | –
O=C(Nc1nnc(NCc2ccc3c(c2)OCO3)s1)c1ccc2c(c1)C(=O)OC2=O [compound 20, N-{5-[(1,3-benzodioxol-5-ylmethyl)amino]-1,3,4-thiadiazol-2-yl}-1,3-dioxo-1,3-dihydro-2-benzofuran-5-carboxamide] | 97.7% | –
CCCCCCCC/C=C/CCCCCCCC(=O)Nc1nnc(NC[C@@H]2CCC3CC2C3(C)C)s1 (stereo partly drawn) [compound 166, (E)-N-[5-({[(2R)-6,6-dimethylbicyclo[3.1.1]hept-2-yl]methyl}amino)-1,3,4-thiadiazol-2-yl]-9-octadecenamide] | 51.1% | –
O=C(Nc1nnc(NCCc2c[nH]c3ccccc23)s1)c1c(Cl)cccc1Cl [compound 255, 2,6-dichloro-N-(5-{[2-(1H-indol-3-yl)ethyl]amino}-1,3,4-thiadiazol-2-yl)benzamide] | 39.9% | –
CCCCC(CC)CNc1nnc(NC(=O)c2ccc3c(c2)C(=O)OC3=O)s1 (stereo not drawn) [compound 116, N-{5-[(2-ethylhexyl)amino]-1,3,4-thiadiazol-2-yl}-1,3-dioxo-1,3-dihydro-2-benzofuran-5-carboxamide] | 61.9% | –
O=C(Nc1nnc(NCc2cccc3ccccc23)s1)c1ccc([N+](=O)[O-])o1 [compound 44, N-{5-[(1-naphthylmethyl)amino]-1,3,4-thiadiazol-2-yl}-5-nitro-2-furamide] | 83.3% | –
CCCCCCCC/C=C/CCCCCCCC(=O)Nc1nnc(NCCCN2CCN(C)CC2)s1 [compound 14, (E)-N-(5-{[3-(4-methylpiperazino)propyl]amino}-1,3,4-thiadiazol-2-yl)-9-octadecenamide] | 99% | –
CC(C)c1cc(C(C)C)c(C(=O)Nc2nnc(NCCc3ccc(S(N)(=O)=O)cc3)s2)c(C(C)C)c1 [compound 128, N-(5-{[4-(aminosulfonyl)phenethyl]amino}1,3,4-thiadiazol-2-yl)-2,4,6-triisopropylbenzamide] | 58.3% | –
O=C(Nc1nnc(NCCCn2ccnc2)s1)c1c(Cl)cccc1Cl [compound 99, 2,6-dichloro-N-(5-{[3-(1H-imidazol-1-yl)propyl]amino}-1,3,4-thiadiazol-2-yl)benzamide] | 65.6% | –
O=C(Nc1nnc(NCCCN2CCCC2=O)s1)c1cc2ccccc2s1 [compound 150, N-(5-{[3-(2-oxo-1-pyrrolidinyl)propyl]amino}-1,3,4-thiadiazol-2-yl)-1-benzothiophene-2-carboxamide] | 54.5% | –
O=C(/C=C/c1ccccc1)Nc1nnc(NC2CCCCCC2)s1 [compound 274, (E)-N-[5-(cycloheptylamino)-1,3,4-thiadiazol-2-yl]-3-phenyl-2-propenamide] | 38.1% | –
NS(=O)(=O)c1ccc(CCNc2nnc(NC(=O)c3ccc4c(c3)C(=O)OC4=O)s2)cc1 [compound 15, N-(5-{[4-(aminosulfonyl)phenethyl]amino}-1,3,4-thiadiazol-2-yl)-1,3-dioxo-1,3-dihydro-2-benzofuran-5-carboxamide] | 98.8% | –
CCOc1ccc2ccccc2c1C(=O)Nc1nnc(NCc2ccccn2)s1 [compound 70, 2-ethoxy-N-{5-[(2-pyridinylmethyl)amino]-1,3,4-thiadiazol-2-yl}-1-naphthamide] | 70.4% | –
O=C(/C=C/c1ccccc1Cl)Nc1nnc(NCCc2c[nH]c3ccccc23)s1 [compound 268, (E)-3-(2-chlorophenyl)-N-(5-{[2-(1H-indol-3-yl)ethyl]amino}-1,3,4-thiadiazol-2-yl)-2-propenamide] | 38.7% | –
O=C(/C=C/c1ccccc1Cl)Nc1nnc(NCCc2c[nH]cn2)s1 [compound 98, (E)-3-(2-chlorophenyl)-N-(5-{[2-(1H-imidazol-4-yl)ethyl]amino}-1,3,4-thiadiazol-2-yl)-2-propenamide] | 65.7% | –
O=C(Nc1nnc(NCCCNC2CCCCC2)s1)c1ccc(I)cc1 [compound 212, N-(5-{[3-(cyclohexylamino)propyl]amino}-1,3,4-thiadiazol-2-yl)-4-iodobenzamide] | 44.2% | –

More lines, main results first:

inhibition at 25 µM | SMILES | % Inhib
21.3% | COc1ccccc1C(=O)Nc1nnc(NCc2ccc(Cl)c(Cl)c2)s1 [compound 452, N-{5-[(3,4-dichlorobenzyl)amino]-1,3,4-thiadiazol-2-yl}-2-methoxybenzamide] | –
20.1% | CN1CCN(CCCNc2nnc(NC(=O)c3ccc(I)cc3)s2)CC1 [compound 467] | –
24.9% | CCCCCCCCCCCNc1nnc(NC(=O)c2c(Cl)cccc2Cl)s1 [compound 410, 2,6-dichloro-N-[5-(undecylamino)-1,3,4-thiadiazol-2-yl]benzamide] | –
37.3% | COc1ccc(CNc2nnc(NC(=O)c3c(Cl)cccc3Cl)s2)cc1OC [compound 280, 2,6-dichloro-N-{5-[(3,4-dimethoxybenzyl)amino]-1,3,4-thiadiazol-2-yl}benzamide] | –
20.5% | O=C(Nc1nnc(NCc2ccc(Cl)c(Cl)c2)s1)c1cccc([N+](=O)[O-])c1 [compound 462, N-{5-[(3,4-dichlorobenzyl)amino]-1,3,4-thiadiazol-2-yl}-3-nitrobenzamide] | –
26.8% | COc1ccccc1C(=O)Nc1nnc(NCCCNC2CCCCC2)s1 [compound 387, N-(5-{[3-(cyclohexylamino)propyl]amino}-1,3,4-thiadiazol-2-yl)-2-methoxybenzamide] | –
28.6% | O=C(Nc1nnc(NC2CCN(Cc3ccccc3)CC2)s1)c1ccc(I)cc1 [compound 367, N-{5-[(1-benzyl-4-piperidinyl)amino]-1,3,4-thiadiazol-2-yl}-4-iodobenzamide] | –
25.3% | CC1(C)C2CC[C@@H](CNc3nnc(NC(=O)c4cc5ccccc5s4)s3)C1C2 (stereo partly drawn) [compound 403, N-[5-({[(2R)-6,6-dimethylbicyclo[3.1.1]hept-2-yl]methyl}amino)-1,3,4-thiadiazol-2-yl]-1-benzothiophene-2-carboxamide] | –
31.7% | N#Cc1ccc(C(=O)Nc2nnc(NCCc3ccc(S(N)(=O)=O)cc3)s2)cc1 [compound 335, N-(5-{[4-(aminosulfonyl)phenethyl]amino}-1,3,4-thiadiazol-2-yl)-4-cyanobenzamide] | –
28.6% | COc1ccccc1C(=O)Nc1nnc(NCCc2ccc(S(N)(=O)=O)cc2)s1 [compound 366, N-(5-{[4-(aminosulfonyl)phenethyl]amino}-1,3,4-thiadiazol-2-yl)-2-methoxybenzamide] | –
28.1% | O=C(/C=C/c1ccccc1Cl)Nc1nnc(NC2CCCc3ccccc32)s1 (stereo not drawn) [compound 374, (E)-3-(2-chlorophenyl)-N-[5-(1,2,3,4-tetrahydro-1-naphthalenylamino)-1,3,4-thiadiazol-2-yl]-2-propenamide] | –
21.4% | O=C(Nc1nnc(NCc2ccc(F)cc2)s1)c1cc(F)cc(F)c1 [compound 451, 3,5-difluoro-N-{5-[(4-fluorobenzyl)amino]-1,3,4-thiadiazol-2-yl}benzamide] | –
29.4% | O=C(/C=C/c1ccccc1Cl)Nc1nnc(NCCCCc2ccccc2)s1 [compound 357, (E)-3-(2-chlorophenyl)-N-{5-[(4-phenylbutyl)amino]-1,3,4-thiadiazol-2-yl}-2-propenamide] | –
21.4% | CCOc1ccc2ccccc2c1C(=O)Nc1nnc(NCC2CCCO2)s1 (stereo not drawn) [compound 450, 2-ethoxy-N-{5-[(tetrahydro-2-furanylmethyl)amino]-1,3,4-thiadiazol-2-yl}-1-naphthamide] | –
27.8% | CCCCCCCC/C=C/CCCCCCCC(=O)Nc1nnc(NCCCn2ccnc2)s1 [compound 378, (E)-N-(5-{[3-(1H-imidazol-1-yl)propyl]amino}-1,3,4-thiadiazol-2-yl)-9-octadecenamide] | –
30.7% | O=C(CCCCCl)Nc1nnc(NCCc2c[nH]c3ccccc23)s1 [compound 346, 5-chloro-N-(5-{[2-(1H-indol-3-yl)ethyl]amino}-1,3,4-thiadiazol-2-yl)pentanamide] | –
22.5% | CC(C)c1cc(C(C)C)c(C(=O)Nc2nnc(NC[C@@H]3CCC4CC3C4(C)C)s2)c(C(C)C)c1 (stereo partly drawn) [compound 440, N-[5-({[(2R)-6,6-dimethylbicyclo[3.1.1]hept-2-yl]methyl}amino)-1,3,4-thiadiazol-2-yl]-2,4,6-triisopropylbenzamide] | –
25% | O=C(Nc1nnc(NCC2CCCO2)s1)c1cc2ccccc2s1 (stereo not drawn) [compound 405, N-{5-[(tetrahydro-2-furanylmethyl)amino]-1,3,4-thiadiazol-2-yl}-1-benzothiophene-2-carboxamide] | –
24.4% | O=C(Nc1nnc(NC2CCCCCC2)s1)c1ccc(Cl)c(Cl)c1 [compound 418, 3,4-dichloro-N-[5-(cycloheptylamino)-1,3,4-thiadiazol-2-yl]benzamide] | –
22.5% | CCCCCCCCCCCNc1nnc(NC(=O)c2c(C(C)C)cc(C(C)C)cc2C(C)C)s1 [compound 441, 2,4,6-triisopropyl-N-[5-(undecylamino)-1,3,4-thiadiazol-2-yl]benzamide] | –
28.3% | O=C(Nc1nnc(NCCN2CCCC2)s1)c1c(Cl)cccc1Cl [compound 370, 2,6-dichloro-N-(5-{[2-(1-pyrrolidinyl)ethyl]amino}-1,3,4-thiadiazol-2-yl)benzamide] | –

Source: patent US6150385A, “1,3,4-thiadiazoles useful for the treatment of CMV infections” (Pharmacia & Upjohn Company, priority 1999, dated 2000)
